{"source": "patent US9207243B2", "about": "“Use of GLUT4 inhibitors and DNA damaging agents for treating multiple myeloma” (Northwestern University, priority 2011, dated 2015)", "key": {"[1]": {"details": "cited from earlier work"}, "[2]": {"system": "MM.1S cells", "experiment": "Glucose consumption of MM.1S cells treated with 8-NH2-Ado", "assay_type": "cell-based, human", "details": "3 μM 8-NH2-Ado, within the first five hours of treatment", "protocol": "(§1) (A) Measurement of glucose consumed by MM.1S cells treated with 3 μM 8-NH2-Ado for 5 hours. Data are means±SEM (n=3). (B) MM.1S cells were treated for the indicated number of hours with 3 μM 8-NH2-Ado or not (C) prior to lysis and immunoblot analysis of GLUT1 and GLUT4 expression. (C) Immunostaining of GLUT1 and GLUT4 in MM.1S cells treated with 3 μM 8 NH2-Ado for 5 hours. Arrow indicates intracellular aggregation of GLUT4.\nOur laboratory has worked extensively on defining the mechanism of action of purine analogues 8-amino-adenosine (8-NH2-Ado) and 8-chloro-adenosine (Gandhi, Ayres et al. 2001; Krett, Davies et al. 2004; Ghias, Ma et al. 2005). In our recent publication (Shanmugam, McBrayer et al. 2009) we report that 8-NH2-Ado targets cellular metabolism by inducing a rapid decline in glucose consumption, the magnitude of which correlates with toxicity in various myeloma cell lines.\nTo explore mechanisms underlying the decrease in glucose consumption elicited by 8-NH2-Ado in the MM.1S cell line, we examined the regulation of glucose transporters that regulate the primary rate limiting step in glycolysis (Rodriguez-Enriquez, Marin-Hernandez et al. 2009). […] Since the activity of these proteins depends upon insertion into the plasma membrane, we next evaluated subcellular distribution by immunofluorescence confocal microscopy (FIG. 1C). […]"}, "[3]": {"system": "GLUT4", "experiment": "Immunostaining / confocal microscopy of GLUT4 subcellular localization in MM.1S cells", "assay_type": "cell-based, human", "details": "3 μM 8-NH2-Ado, 5 hours, aggregation of GLUT4 within the trans-golgi network", "protocol": "as §1\nTo explore mechanisms underlying the decrease in glucose consumption elicited by 8-NH2-Ado in the MM.1S cell line, we examined the regulation of glucose transporters that regulate the primary rate limiting step in glycolysis (Rodriguez-Enriquez, Marin-Hernandez et al. 2009). We examined expression and subcellular localization of GLUT1 and GLUT4, two highly expressed glucose transporters in B lymphocytes. Despite a 40% decline in glucose consumption rates within the first five hours of treatment (FIG. 1A), no substantial changes in GLUT1 or GLUT4 expression levels are observed at this time (FIG. 1B). The expression of both GLUT1 and 4 are diminished by 24 hours, potentially contributing to the further decline in glucose transport rates seen between 5 and 17 hours. Since the activity of these proteins depends upon insertion into the plasma membrane, we next evaluated subcellular distribution by immunofluorescence confocal microscopy (FIG. 1C). […]"}, "[4]": {"system": "U266 myeloma cells", "experiment": "Doxorubicin cell death in U266 cells in 11 or 0.5 mM glucose medium (flow cytometry, DAPI staining)", "assay_type": "cell-based, human", "details": "0.5 mM vs 11 mM glucose medium, 48 hours", "protocol": "(A) Primary normal B lymphocytes and CD138+ cells isolated from an MM patient and L363 cells were cultured in medium containing 0 or 5 mM glucose for 48 (NBL, L363) or 72 (MM Patient) hours. Cell viability was determined by flow cytometric analysis of AnnexinV/DAPI staining and normalized to 5 mM samples. Data are means±SEM (n=2). (B) Indicated cells were cultured as in (A) with various concentrations of glucose for 72 hours. Viable cell quantities were determined by MTS assay and normalized to 5 mM samples. Data are means±SEM. (C) U266 myeloma cells were cultured in 11 or 0.5 mM glucose-containing medium for 48 hours in the presence of the indicated concentrations of doxorubicin. Cell death was determined by flow cytometric analysis of DAPI staining. Data are means±SEM. *p<0.05 **p<0.01.\nGlucose Deprivation Attenuates Proliferation, Viability and Chemoresistance of Myeloma Cells. To independently ascertain the contribution of glucose in maintaining myeloma cell proliferation and survival we cultured L363 myeloma cells, normal B lymphocytes (NBL), and primary MM cells in medium containing either a physiological glucose concentration (5 mM) or medium devoid of glucose and assessed the impact on cellular viability (FIG. 2 A). Under these conditions, greater than 95% of L363 cells and 50% of the primary MM cells undergo apoptosis while the viability of normal cells is not impacted. […]"}, "[5]": {"biological_target": "T1, GLUT4 (Rattus norvegicus, UniProt P19357)", "T1 construct": "host or cells: primary rat adipocytes", "T1 sequence (P19357 1-509)": "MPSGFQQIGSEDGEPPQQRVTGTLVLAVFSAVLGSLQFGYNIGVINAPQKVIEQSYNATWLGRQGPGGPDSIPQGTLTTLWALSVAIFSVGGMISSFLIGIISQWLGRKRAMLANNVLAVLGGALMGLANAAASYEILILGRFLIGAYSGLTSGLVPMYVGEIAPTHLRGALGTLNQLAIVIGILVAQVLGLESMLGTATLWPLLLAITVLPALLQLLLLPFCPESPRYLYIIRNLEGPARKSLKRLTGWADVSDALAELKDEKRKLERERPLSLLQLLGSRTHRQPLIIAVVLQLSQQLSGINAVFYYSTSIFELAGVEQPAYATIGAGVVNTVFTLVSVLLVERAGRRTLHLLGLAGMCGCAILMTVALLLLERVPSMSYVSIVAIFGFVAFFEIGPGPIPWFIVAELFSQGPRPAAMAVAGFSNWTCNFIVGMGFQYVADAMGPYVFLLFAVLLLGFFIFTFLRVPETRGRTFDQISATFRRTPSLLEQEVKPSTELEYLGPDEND", "details": "primary rat adipocytes (Murata, Hruz et al.); read-out: Ki, reversible non-competitive GLUT4 inhibition; cited from earlier work"}, "[6]": {"details": "epirubicin plus lonidamine vs epirubicin alone; did not reach statistical significance; cited from earlier work"}, "[7]": {"system": "KMS11 cells", "experiment": "Glucose consumption rate with ritonavir, KMS11", "assay_type": "cell-based, human", "details": "KMS11, 5 mM glucose medium, 17 hours", "protocol": "(§2) (A) KMS11 and (B) L363 cells were plated in 5 mM glucose medium with ritonavir or DMSO (D) for 17 hours. Glucose consumption rates are normalized to untreated cells (not shown). (C) KMS11 and (D) L363 cells were treated with ritonavir or DMSO for 12 hours. Relative viable cell numbers were determined by MTS assay and normalized to untreated cells (not shown). (E) KMS11 and (F) L363 cells were treated with 20 μM ritonavir with or without 0.075 (KMS11) and 0.025 μM (L363) doxorubicin or the combination for 72 hrs and cellular viability assessed by AnnexinV/DAPI staining. (G) Stable KMS11 cell lines were generated expressing empty vector or GLUT1 and GLUT1 levels were assessed by immunoblot. Representative blot is shown. N.S. indicates non-specific band. (H) Stable cell lines from part G were treated with DMSO or ritonavir (Rit) for 5 hours and glucose consumption was assessed. (1) Cell proliferation was measured in the stable cell lines described in part G treated with ritonavir (Rit) or DMSO for 72 hours. A representative experiment is shown. (J) Cell proliferation rates from multiple experiments represented by part G are normalized to DMSO-treated cells. (K) Primary myeloma cells were treated with DMSO or ritonavir for 72 hours before AnnexinV/DAPI staining. Values are normalized to DMSO-treated samples (n=1 for each patient sample). Data are means±SEM with n≧3. *P<0.05 **P<0.01 ***P<0.005."}, "[8]": {"system": "L363 cells", "experiment": "Glucose consumption rate with ritonavir, L363", "assay_type": "cell-based, human", "details": "L363, 5 mM glucose medium, 17 hours", "protocol": "as §2"}, "[9]": {"system": "KMS11 cells", "experiment": "Relative viable cell number by MTS assay with ritonavir, KMS11", "assay_type": "cell-based, human", "protocol": "as §2"}, "[10]": {"system": "L363 cells", "experiment": "Relative viable cell number by MTS assay with ritonavir, L363", "assay_type": "cell-based, human", "protocol": "as §2"}, "[11]": {"system": "KMS11 cells", "experiment": "Ritonavir with or without doxorubicin, viability by AnnexinV/DAPI staining, KMS11", "assay_type": "cell-based, human", "details": "KMS11, 20 μM ritonavir with 0.075 μM doxorubicin, 72 hrs", "protocol": "as §2"}, "[12]": {"system": "L363 cells", "experiment": "Ritonavir with or without doxorubicin, viability by AnnexinV/DAPI staining, L363", "assay_type": "cell-based, human", "details": "L363, 20 μM ritonavir with 0.025 μM doxorubicin, 72 hrs", "protocol": "as §2"}, "[13]": {"system": "KMS11 stable cell lines expressing GLUT1", "experiment": "Glucose consumption in stable KMS11 cell lines expressing GLUT1 or control, treated with ritonavir", "assay_type": "cell-based, human", "details": "KMS11 stable line expressing GLUT1, 5 hours", "protocol": "as §2"}, "[14]": {"system": "KMS11 stable cell lines expressing GLUT1", "experiment": "Cell proliferation in stable KMS11 cell lines expressing GLUT1 or control, treated with ritonavir", "assay_type": "cell-based, human", "details": "KMS11 stable line expressing GLUT1, 72 hours", "protocol": "as §2"}, "[15]": {"system": "primary myeloma cells", "experiment": "Cytotoxicity of ritonavir towards primary myeloma cells (AnnexinV/DAPI staining)", "assay_type": "cell-based, human", "details": "20 μM ritonavir, 72 hours", "protocol": "as §2"}, "[16]": {"details": "humans (Hsu, Granneman et al. 1997); cited from earlier work"}, "[17]": {"details": "2DG and docetaxel, evaluable pool of 18 patients"}}}
{"molecule": "O=CC[C@@H](O)[C@H](O)[C@H](O)CO", "note": "[2DG]", "values": [{"measurement": "adverse event noted in multiple patients", "setting": "[1]; 2DG and docetaxel phase I trial", "result": "Grade 3 hyperglycemia"}, {"measurement": "cases of disease stabilization", "setting": "[1]; [17]", "result": "six"}, {"measurement": "partial response", "setting": "[1]; [17]", "result": "one"}]}
{"molecule": "Nc1ncnc2c1nc(N)n2[C@@H]1O[C@H](CO)[C@@H](O)[C@H]1O", "note": "[8-NH2-Ado, 8-amino-adenosine]", "values": [{"measurement": "decline in glucose consumption rates", "setting": "[2]", "result": 40, "unit": "%"}, {"measurement": "basal cell surface localization of GLUT4", "setting": "[3]", "result": "reduces this basal cell surface localization of GLUT4"}]}
{"molecule": "COc1cccc2c1C(=O)c1c(O)c3c(c(O)c1C2=O)C[C@@](O)(C(=O)CO)C[C@@H]3O[C@H]1C[C@H](N)[C@H](O)[C@H](C)O1", "note": "[doxorubicin]", "values": [{"measurement": "sensitivity to doxorubicin under glucose-limiting conditions", "setting": "[4]", "result": "significantly greater sensitivity"}]}
{"molecule": "CC(C)(C)NC(=O)[C@@H]1CN(Cc2cccnc2)CCN1C[C@@H](O)C[C@@H](Cc1ccccc1)C(=O)N[C@H]1c2ccccc2C[C@H]1O", "note": "[indinavir]", "values": [{"measurement": "Ki", "setting": "[5]", "result": 15, "unit": "µM"}]}
{"molecule": "O=C(O)c1nn(Cc2ccc(Cl)cc2Cl)c2ccccc12", "note": "[lonidamine]", "values": [{"measurement": "increase in overall response rate", "setting": "[6]", "result": 9, "unit": "%"}]}
{"molecule": "CC(C)c1nc(CN(C)C(=O)N[C@H](C(=O)N[C@@H](Cc2ccccc2)C[C@H](O)[C@H](Cc2ccccc2)NC(=O)OCc2cncs2)C(C)C)cs1", "note": "[ritonavir]", "values": [{"measurement": "glucose transport (glucose consumption rate)", "setting": "[7]", "result": "dose-dependent abrogation"}, {"measurement": "glucose transport (glucose consumption rate)", "setting": "[8]", "result": "dose-dependent abrogation"}, {"measurement": "proliferation (relative viable cell numbers, MTS)", "setting": "[9]", "result": "dose-dependent abrogation"}, {"measurement": "proliferation (relative viable cell numbers, MTS)", "setting": "[10]", "result": "dose-dependent abrogation"}, {"measurement": "sensitization to doxorubicin", "setting": "[11]", "result": "recapitulates the doxorubicin-sensitizing effects of glucose limitation"}, {"measurement": "sensitization to doxorubicin", "setting": "[12]", "result": "recapitulates the doxorubicin-sensitizing effects of glucose limitation"}, {"measurement": "effect of GLUT1 expression on ritonavir-induced glucose transport inhibition", "setting": "[13]", "result": "completely mitigated"}, {"measurement": "effect of GLUT1 expression on response to prolonged ritonavir treatment (proliferation)", "setting": "[14]", "result": "robust resistance"}, {"measurement": "cell death induction in patient samples", "setting": "[15]", "result": "a range of cell death induction"}, {"measurement": "peak plasma level routinely achieved in humans", "setting": "[16]", "result": "~20", "unit": "µM"}]}
